According to patent publication US20230085307A1, “PYRIDAZINONE COMPOUND AND HERBICIDE” (NISSAN CHEMICAL CORPORATION, priority 2019, published 2023):

Legend:
barnyard grass [1] = assay: Test Example 3: herbicidal effect by foliage application, Wagner pot (Table 18, symbol H); format: in vivo, barnyard grass (Echinochloa crus-galli); details: 320 g/ha
How it was run: (§1)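 Plants were sown in alluvial soil held under 0.1–0.5 cm standing water and grown 14 days in a greenhouse at 25–30 °C. An emulsifiable formulation, water-diluted to the set dose, was then sprayed onto the foliage, and effects were scored three weeks later using previously defined criteria.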

Chinese sprangletop = assay: Test Example 3: herbicidal effect by foliage application, Wagner pot (Table 18, symbol D); format: in vivo, chinese sprangletop (Leptochloa chinensis); details: 320 g/ha
How it was run: as §1

rice flat sedge = assay: Test Example 3: herbicidal effect by foliage application, Wagner pot (Table 18, symbol E); format: in vivo, rice flat sedge (Cyperus iria); details: 320 g/ha
How it was run: as §1

southern crabgrass [2] = assay: Test Example 4: herbicidal effect by soil treatment (Table 19, symbol F); format: in vivo, southern crabgrass (Digitaria ciliaris); details: amount of applied herbicide 320 g/ha
How it was run: (§2)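 In this soil treatment, the formulated compound reached the seeds only through the soil: seeds were buried about 1.5 cm deep in sterilized diluvial soil, then the diluted emulsion was sprayed over the surface. After three weeks at 25° C. to 30° C. in a greenhouse, effects were graded on criteria from an earlier test.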

green foxtail [3] = assay: Test Example 4: herbicidal effect by soil treatment (Table 19, symbol G); format: in vivo, green foxtail (Setaria viridis); details: amount of applied herbicide 320 g/ha
How it was run: as §2

barnyard grass [4] = assay: Test Example 4: herbicidal effect by soil treatment (Table 19, symbol H); format: in vivo, barnyard grass (Echinochloa crus-galli); details: amount of applied herbicide 320 g/ha
How it was run: as §2

wild oat [5] = assay: Test Example 4: herbicidal effect by soil treatment (Table 19, symbol I); format: in vivo, wild oat (Avena fatua); details: amount of applied herbicide 320 g/ha
How it was run: as §2

blackgrass [6] = assay: Test Example 4: herbicidal effect by soil treatment (Table 19, symbol J); format: in vivo, blackgrass (Alopecurus myosuroides); details: amount of applied herbicide 320 g/ha
How it was run: as §2

Italian ryegrass [7] = assay: Test Example 4: herbicidal effect by soil treatment (Table 19, symbol K); format: in vivo, Italian ryegrass (Lolium multiflorum); details: amount of applied herbicide 320 g/ha
How it was run: as §2

windgrass [8] = assay: Test Example 4: herbicidal effect by soil treatment (Table 19, symbol L); format: in vivo, windgrass (Apera spica-venti); details: amount of applied herbicide 320 g/ha
How it was run: as §2

velvetleaf [9] = assay: Test Example 4: herbicidal effect by soil treatment (Table 19, symbol M); format: in vivo, velvetleaf (Abutilon theophrasti); details: amount of applied herbicide 320 g/ha
How it was run: as §2

redroot pigweed [10] = assay: Test Example 4: herbicidal effect by soil treatment (Table 19, symbol N); format: in vivo, redroot pigweed (Amaranthus retroflexus); details: amount of applied herbicide 320 g/ha
How it was run: as §2

lambsquarters [11] = assay: Test Example 4: herbicidal effect by soil treatment (Table 19, symbol O); format: in vivo, lambsquarters (Chenopodium album); details: amount of applied herbicide 320 g/ha
How it was run: as §2

chickweed [12] = assay: Test Example 4: herbicidal effect by soil treatment (Table 19, symbol P); format: in vivo, common chickweed (Stellaria media); details: amount of applied herbicide 320 g/ha
How it was run: as §2

persian speedwell [13] = assay: Test Example 4: herbicidal effect by soil treatment (Table 19, symbol R); format: in vivo, Persian speedwell (Veronica persica); details: amount of applied herbicide 320 g/ha
How it was run: as §2

southern crabgrass [14] = assay: Test Example 5: herbicidal effect by foliage application, plastic box (Table 20, symbol F); format: in vivo, southern crabgrass (Digitaria ciliaris); details: amount of applied herbicide 320 g/ha; foliage application after 14-day growth; evaluated three weeks after application
How it was run: (§3)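 Plants were sown into sterilized diluvial soil under about 1.5 cm cover and kept in a greenhouse at 25° C. to 30° C. Fourteen days on, foliage received an even spray of the diluted emulsion. Herbicidal or crop effect was judged three weeks afterwards.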

green foxtail [15] = assay: Test Example 5: herbicidal effect by foliage application, plastic box (Table 20, symbol G); format: in vivo, green foxtail (Setaria viridis); details: amount of applied herbicide 320 g/ha; foliage application after 14-day growth; evaluated three weeks after application
How it was run: as §3

barnyard grass [16] = assay: Test Example 5: herbicidal effect by foliage application, plastic box (Table 20, symbol H); format: in vivo, barnyard grass (Echinochloa crus-galli); details: amount of applied herbicide 320 g/ha; foliage application after 14-day growth; evaluated three weeks after application
How it was run: as §3

wild oat [17] = assay: Test Example 5: herbicidal effect by foliage application, plastic box (Table 20, symbol I); format: in vivo, wild oat (Avena fatua); details: amount of applied herbicide 320 g/ha; foliage application after 14-day growth; evaluated three weeks after application
How it was run: as §3

blackgrass [18] = assay: Test Example 5: herbicidal effect by foliage application, plastic box (Table 20, symbol J); format: in vivo, blackgrass (Alopecurus myosuroides); details: amount of applied herbicide 320 g/ha; foliage application after 14-day growth; evaluated three weeks after application
How it was run: as §3

Italian ryegrass [19] = assay: Test Example 5: herbicidal effect by foliage application, plastic box (Table 20, symbol K); format: in vivo, Italian ryegrass (Lolium multiflorum); details: amount of applied herbicide 320 g/ha; foliage application after 14-day growth; evaluated three weeks after application
How it was run: as §3

windgrass [20] = assay: Test Example 5: herbicidal effect by foliage application, plastic box (Table 20, symbol L); format: in vivo, windgrass (Apera spica-venti); details: amount of applied herbicide 320 g/ha; foliage application after 14-day growth; evaluated three weeks after application
How it was run: as §3

velvetleaf [21] = assay: Test Example 5: herbicidal effect by foliage application, plastic box (Table 20, symbol M); format: in vivo, velvetleaf (Abutilon theophrasti); details: amount of applied herbicide 320 g/ha; foliage application after 14-day growth; evaluated three weeks after application
How it was run: as §3

redroot pigweed [22] = assay: Test Example 5: herbicidal effect by foliage application, plastic box (Table 20, symbol N); format: in vivo, redroot pigweed (Amaranthus retroflexus); details: amount of applied herbicide 320 g/ha; foliage application after 14-day growth; evaluated three weeks after application
How it was run: as §3

lambsquarters [23] = assay: Test Example 5: herbicidal effect by foliage application, plastic box (Table 20, symbol O); format: in vivo, lambsquarters (Chenopodium album); details: amount of applied herbicide 320 g/ha; foliage application after 14-day growth; evaluated three weeks after application
How it was run: as §3

chickweed [24] = assay: Test Example 5: herbicidal effect by foliage application, plastic box (Table 20, symbol P); format: in vivo, common chickweed (Stellaria media); details: amount of applied herbicide 320 g/ha; foliage application after 14-day growth; evaluated three weeks after application
How it was run: as §3

persian speedwell [25] = assay: Test Example 5: herbicidal effect by foliage application, plastic box (Table 20, symbol R); format: in vivo, Persian speedwell (Veronica persica); details: amount of applied herbicide 320 g/ha; foliage application after 14-day growth; evaluated three weeks after application
How it was run: as §3

For `Cc1ccc(-c2sc3cc(F)c(F)cc3c2-c2c(O)c(C)nn(C)c2=O)cc1` [5-003], the “herbicidal effect on barnyard grass (H)” value (barnyard grass [1]) was 3 (Herbicidal rate of 40% or more and less than 70%), the “herbicidal effect on Chinese sprangletop (D)” value (Chinese sprangletop) was 3 (Herbicidal rate of 40% or more and less than 70%) and the “herbicidal effect on rice flat sedge (E)” value (rice flat sedge) was 5 (Herbicidal rate of 90% or more (almost completely withered)). The “F: southern crabgrass, herbicidal effect grade” value (southern crabgrass [2]) was 1 (Herbicidal rate of 5% or more and less than 20%), the “G: green foxtail, herbicidal effect grade” value (green foxtail [3]) was 4 (Herbicidal rate of 70% or more and less than 90%) and the “H: barnyard grass, herbicidal effect grade” value (barnyard grass [4]) was 3 (Herbicidal rate of 40% or more and less than 70%). For the same molecule, the “I: wild oat, herbicidal effect grade” value (wild oat [5]) was 0 (Herbicidal rate of 5% or less (almost no effect)), the “J: blackgrass, herbicidal effect grade” value (blackgrass [6]) was 0 (Herbicidal rate of 5% or less (almost no effect)) and the “K: Italian ryegrass, herbicidal effect grade” value (Italian ryegrass [7]) was 0 (Herbicidal rate of 5% or less (almost no effect)). The “L: windgrass, herbicidal effect grade” value (windgrass [8]) was 0 (Herbicidal rate of 5% or less (almost no effect)), the “M: velvetleaf, herbicidal effect grade” value (velvetleaf [9]) was 2 (Herbicidal rate of 20% or more and less than 40%) and the “N: redroot pigweed, herbicidal effect grade” value (redroot pigweed [10]) was 3 (Herbicidal rate of 40% or more and less than 70%). The “O: lambsquarters, herbicidal effect grade” value (lambsquarters [11]) was 5 (Herbicidal rate of 90% or more (almost completely withered)), the “P: chickweed, herbicidal effect grade” value (chickweed [12]) was 4 (Herbicidal rate of 70% or more and less than 90%) and the “R: persian speedwell, herbicidal effect grade” value (persian speedwell [13]) was 4 (Herbicidal rate of 70% or more and less than 90%). The “Herbicidal effect by foliage application, F: southern crabgrass” value (southern crabgrass [14]) was 0 (Herbicidal rate of 5% or less (almost no effect)), the “Herbicidal effect by foliage application, G: green foxtail” value (green foxtail [15]) was 2 (Herbicidal rate of 20% or more and less than 40%) and the “Herbicidal effect by foliage application, H: barnyard grass” value (barnyard grass [16]) was 0 (Herbicidal rate of 5% or less (almost no effect)). The “Herbicidal effect by foliage application, I: wild oat” value (wild oat [17]) was 0 (Herbicidal rate of 5% or less (almost no effect)), the “Herbicidal effect by foliage application, J: blackgrass” value (blackgrass [18]) was 0 (Herbicidal rate of 5% or less (almost no effect)) and the “Herbicidal effect by foliage application, K: Italian ryegrass” value (Italian ryegrass [19]) was 2 (Herbicidal rate of 20% or more and less than 40%). For the same molecule, the “Herbicidal effect by foliage application, L: windgrass” value (windgrass [20]) was 0 (Herbicidal rate of 5% or less (almost no effect)), the “Herbicidal effect by foliage application, M: velvetleaf” value (velvetleaf [21]) was 5 (Herbicidal rate of 90% or more (almost completely withered)) and the “Herbicidal effect by foliage application, N: redroot pigweed” value (redroot pigweed [22]) was 5 (Herbicidal rate of 90% or more (almost completely withered)). The “Herbicidal effect by foliage application, O: lambsquarters” value (lambsquarters [23]) was 5 (Herbicidal rate of 90% or more (almost completely withered)), the “Herbicidal effect by foliage application, P: chickweed” value (chickweed [24]) was 5 (Herbicidal rate of 90% or more (almost completely withered)) and the “Herbicidal effect by foliage application, R: persian speedwell” value (persian speedwell [25]) was 5 (Herbicidal rate of 90% or more (almost completely withered)).
